This note sets out measurements from patent US9890138B2, “Diaminopyrimidine derivatives and processes for the preparation thereof” (YUHAN CORPORATION, priority 2011, dated 2018).

Counter-ions that a name gives are not always drawn.

The target of the test is T1, human 5-HT4(a) (Homo sapiens, UniProt Q13639).
T1 construct: host or cells: GeneBlAzer HTR4-CRE-bla CHO-K1 cells
T1 sequence (Q13639 1-387 isoform Q13639-2): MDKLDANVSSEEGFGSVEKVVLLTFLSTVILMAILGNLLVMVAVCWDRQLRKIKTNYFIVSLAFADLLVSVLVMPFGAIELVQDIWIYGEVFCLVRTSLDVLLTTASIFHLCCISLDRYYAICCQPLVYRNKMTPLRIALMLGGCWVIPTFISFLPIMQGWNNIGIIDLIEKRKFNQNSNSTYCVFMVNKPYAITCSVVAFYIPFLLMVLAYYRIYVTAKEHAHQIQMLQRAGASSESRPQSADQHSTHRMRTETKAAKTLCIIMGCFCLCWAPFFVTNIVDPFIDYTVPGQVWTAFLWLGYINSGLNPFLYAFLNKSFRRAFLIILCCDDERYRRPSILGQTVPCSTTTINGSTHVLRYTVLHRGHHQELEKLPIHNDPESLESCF
Briefly: Evaluation of agonistic activity in CHO-K1 cells expressing human 5-HT4(a) (GeneBlAzer HTR4-CRE-bla CHO-K1, beta-lactamase reporter). The conditions noted are these: CHO-K1 cells stably expressing human 5-HT4(a). The test is classed as cell-based. The essentials:
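GeneBlAzer HTR4-CRE-bla CHO-K1 cells, 10^4/well overnight, exposed 5 h to compounds at 8 concentrations in medium with 1% DMSO in the added solution. β-lactamase substrate 2 h in dark; 410 nm excitation, 465/535 nm emission ratio; EC50 by non-linear regression.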
In the case of `CCCc1cc(N2CCC[C@H]2CO)nc(Nc2cccc(C(F)(F)F)c2)n1` [Example 203], the half-maximal effective concentration (EC50) (usually the concentration giving half of the maximal effect) turned out to be 0.3 nM.
On to `CCCc1cc(N2CCC[C@H]2CO)nc(Nc2cc(Cl)ccc2C)n1` [Example 204], for which the concentration giving a half-maximal response (EC50) is 0.47 nM.
`CCCc1cc(N2CCC[C@H]2CO)nc(Nc2ccc(C)c(Cl)c2)n1` [Example 206] yielded an EC50 of 0.16 nM.
Compound `CCCc1cc(N2CCC[C@H]2CO)nc(Nc2cccc([N+](=O)[O-])c2)n1` [Example 207] gave an EC50 of 0.083 nM.
Regarding `CCCc1cc(N2CCC[C@H]2CO)nc(Nc2ccc(F)c([N+](=O)[O-])c2)n1` [Example 208, (S)-{1-[2-(4-fluoro-3-nitrophenylamino)-6-propylpyrimidin-4-yl]pyrrolidin-2-yl}methanol], the EC50 turned out to be 0.06 nM.
In turn, `CCCc1cc(N2CCC[C@H]2CO)nc(Nc2ccc(C)c([N+](=O)[O-])c2)n1` [Example 210, (S)-{1-[2-(4-methyl-3-nitrophenylamino)-6-propylpyrimidin-4-yl]pyrrolidin-2-yl}methanol] displayed a 50% effective concentration (EC50) of 0.016 nM.
In the case of `CCCc1cc(N2CCC[C@H]2CO)nc(Nc2ccc(N)c(C(F)(F)F)c2)n1` [Example 211] it was 0.019 nM.
`CCCc1cc(N2CCC[C@H]2CO)nc(Nc2ccc(N)c([N+](=O)[O-])c2)n1` [Example 212, (S)-{1-[2-(4-amino-3-nitrophenylamino)-6-propylpyrimidin-4-yl]pyrrolidin-2-yl}methanol] returned an EC50 of 0.0089 nM.
As to `CCCc1cc(N2CCC[C@H]2CO)nc(Nc2ccc(C)c(C#N)c2)n1` [Example 213], a half-maximal response (EC50) required 0.017 nM.
For `CCCc1cc(N2CCC[C@H]2CO)nc(Nc2ccc(F)c(C#N)c2)n1` [Example 214, (S)-2-fluoro-5-{4-[2-(hydroxymethyl)pyrrolidin-1-yl]-6-propylpyrimidin-2-ylamino}benzonitrile], a half-maximal response (EC50) required 0.029 nM.
The compound `CCCc1cc(N2CCC[C@H]2CO)nc(Nc2ccc(N)c(C#N)c2)n1` [Example 215] had an EC50 of 0.018 nM.
As to `CCCc1cc(N2CC[C@H](NCCN)C2)nc(Nc2cccc(C#N)c2)n1` [Example 220], the EC50 amounted to 0.07 nM.
With `CCCc1cc(N2CC[C@H](NC3CCNCC3)C2)nc(Nc2cccc(C#N)c2)n1` [Example 221, (S)-3-{4-[3-(piperidin-4-ylamino)pyrrolidin-1-yl]-6-propylpyrimidin-2-ylamino}benzonitrile], a half-maximal effect (EC50) was put at 0.149 nM.
`CCCCN1CCC(N[C@H]2CCN(c3cc(CCC)nc(Nc4cccc(C#N)c4)n3)C2)CC1` [Example 222] returned a 50% effective concentration (EC50) of 0.082 nM.
In the case of `CCCCc1cc(N2CC[C@H](NC(C)=O)C2)nc(Nc2cccc(C#N)c2)n1` [Example 223], the EC50 turned out to be 0.011 nM.
Compound `CCCCc1cc(N2CCC[C@H]2CO)nc(Nc2cccc(C#N)c2)n1` [Example 224] displayed a concentration for a half-maximal effect (EC50) of 0.0043 nM.
The compound `CCCCc1cc(N2CCC[C@H]2C)nc(Nc2cccc(C#N)c2)n1` [Example 225] had a concentration for a half-maximal effect (EC50) of 0.052 nM.
In turn, `CCCCc1cc(N2CC[C@H](NC)C2)nc(Nc2cccc(C#N)c2)n1` [Example 226] showed an EC50 of 0.052 nM.
The compound `CCCCc1cc(N2CC[C@H](NC(C)=O)C2)nc(Nc2ccc(C)c(C#N)c2)n1` [Example 228, (S)—N-{1-[6-butyl-2-(3-cyano-4-methylphenylamino)pyrimidin-4-yl]pyrrolidin-3-yl}acetamide] registered an EC50 of 0.014 nM.
In the case of `CCCCc1cc(N2CCC[C@H]2C)nc(Nc2ccc(C)c(C#N)c2)n1` [Example 230], the response was half-maximal at 0.047 nM (EC50).
Regarding `CCCCc1cc(N2CC[C@H](NC)C2)nc(Nc2ccc(C)c(C#N)c2)n1` [Example 231], the midpoint of the response, the EC50, lay at 0.0067 nM.
On to `CCCCc1cc(N2CC[C@H](NC(=O)OC(C)(C)C)C2)nc(Nc2ccc(C)c(C#N)c2)n1` [Example 232, (S)-tert-butyl 1-[6-butyl-2-(3-cyano-4-methylphenylamino)pyrimidin-4-yl]pyrrolidin-3-ylcarbamate], for which the midpoint of the response, the EC50, lay at 0.13 nM.
In the case of `CCCCc1cc(N2CC[C@H](N)C2)nc(Nc2cccc(C#N)c2)n1` [Example 233, (S)-3-[4-(3-aminopyrrolidin-1-yl)-6-butylpyrimidin-2-ylamino]benzonitrile dihydrochloride], the midpoint of the response, the EC50, lay at 0.019 nM.
In turn, `CCCCc1cc(N2CC[C@H](N)C2)nc(Nc2ccc(C)c(C#N)c2)n1` [Example 234, (S)-5-[4-(3-aminopyrrolidin-1-yl)-6-butylpyrimidin-2-ylamino]-2-methylbenzonitrile dihydrochloride] yielded a concentration for a half-maximal effect (EC50) of 0.0012 nM.
For the compound `CCCCc1cc(N2CC[C@H](NC(C)C)C2)nc(Nc2cccc(C#N)c2)n1` [Example 235], a half-maximal response (EC50) required 0.0023 nM.
For `CCCCc1cc(N2CC[C@H](N(CC)CC)C2)nc(Nc2cccc(C#N)c2)n1` [Example 236], a half-maximal effect (EC50) was put at 0.209 nM.
`CCCCc1cc(N2CC[C@H](NCC3CC3)C2)nc(Nc2cccc(C#N)c2)n1` [Example 237] came in with a concentration for a half-maximal effect (EC50) of 0.0013 nM.
Regarding `CCCCc1cc(N2CC[C@H](N(CC)CC)C2)nc(Nc2ccc(C)c(C#N)c2)n1` [Example 239], the 50% effective concentration (EC50) came to 0.115 nM.
In turn, `CCCCc1cc(N2CC[C@H](NCC3CC3)C2)nc(Nc2ccc(C)c(C#N)c2)n1` [Example 240] yielded an EC50 of 0.0025 nM.
`CCCc1cc(N2CC[C@H](NC(C)=O)C2)nc(Nc2ccc(Cl)c([N+](=O)[O-])c2)n1` [Example 241, (S)—N-{1-[2-(4-chloro-3-nitrophenylamino)-6-propylpyrimidin-4-yl]pyrrolidin-3-yl}acetamide] had a concentration for a half-maximal effect (EC50) of 0.012 nM.
Compound `CCCc1cc(N2CC[C@H](NC(C)=O)C2)nc(Nc2cccc(SC)c2)n1` [Example 242] gave a concentration for a half-maximal effect (EC50) of 0.058 nM.
The compound `CCCc1cc(N2CC[C@H](NC(C)=O)C2)nc(Nc2ccc3cc[nH]c3c2)n1` [Example 243] gave an EC50 of 0.011 nM.
The figure for `CCCc1cc(N2CC[C@H](NC(C)=O)C2)nc(Nc2cccc(C(F)(F)F)c2)n1` [Example 244] is 0.028 nM; for `CCCc1cc(N2CC[C@H](NC(C)=O)C2)nc(Nc2ccc3c(C)cc(=O)oc3c2)n1` [Example 245] it is 0.053 nM.
Consider `CCCc1cc(N2CC[C@H](NC(C)=O)C2)nc(Nc2ccc(C)c(Cl)c2)n1` [Example 246], for which the response was half-maximal at 0.04 nM (EC50).
`CCCc1cc(N2CC[C@H](NC(C)=O)C2)nc(Nc2cccc([N+](=O)[O-])c2)n1` [Example 247] yielded a 50% effective concentration (EC50) of 0.012 nM.
On to `CCCc1cc(N2CC[C@H](NC(C)=O)C2)nc(Nc2ccc(F)c([N+](=O)[O-])c2)n1` [Example 248, (S)—N-{1-[2-(4-fluoro-3-nitrophenylamino)-6-propylpyrimidin-4-yl]pyrrolidin-3-yl}acetamide], for which the EC50 came out at 0.016 nM.
The figure for `CCCc1cc(N2CC[C@H](NC(C)=O)C2)nc(Nc2ccc(C)c([N+](=O)[O-])c2)n1` [Example 249, (S)—N-{1-[2-(4-methyl-3-nitrophenylamino)-6-propylpyrimidin-4-yl]pyrrolidin-3-yl}acetamide] is 0.0018 nM; for `CCCc1cc(N2CC[C@H](NC(C)=O)C2)nc(Nc2ccc(F)c(C#N)c2)n1` [Example 251] it is 0.01 nM.
The compound `CCCc1cc(N2CC[C@H](NC(C)=O)C2)nc(Nc2ccc(C)c(C#N)c2)n1` [Example 252, (S)—N-{1-[2-(3-cyano-4-methylphenylamino)-6-propylpyrimidin-4-yl]pyrrolidin-3-yl}acetamide] gave an EC50 of 0.0052 nM.
The compound `CCCc1cc(N2CC[C@H](NC(C)=O)C2)nc(Nc2ccc(F)c(C(F)(F)F)c2)n1` [Example 253] registered an EC50 of 0.014 nM.
The figure for `CCCc1cc(N2CC[C@H](NC(C)=O)C2)nc(Nc2ccc(N)c([N+](=O)[O-])c2)n1` [Example 254, (S)—N-{1-[2-(4-amino-3-nitrophenylamino)-6-propylpyrimidin-4-yl]pyrrolidin-3-yl}acetamide] is 0.0015 nM; for `CCCc1cc(N2CC[C@H](NC(C)=O)C2)nc(Nc2cc(Cl)ccc2C)n1` [Example 255] it is 0.023 nM; for `CCCc1cc(N2CC[C@H](NC(C)=O)C2)nc(Nc2ccc(N)c(C#N)c2)n1` [Example 260] it is 0.015 nM.
Turning to `CCCc1cc(N2CC[C@H](NC(C)=O)C2)nc(Nc2ccc(N)c(C(F)(F)F)c2)n1` [Example 261], it took 0.0071 nM to reach a half-maximal effect (EC50).
`CCCc1cc(N2CC[C@H](NC(C)=O)C2)nc(Nc2cc(N)cc(C#N)c2)n1` [Example 262] registered a concentration giving a half-maximal response (EC50) of 0.0039 nM.
Compound `CCCc1cc(N2CC[C@H](NC(C)=O)C2)nc(Nc2cc(N)cc(C(F)(F)F)c2)n1` [Example 268] showed an EC50 of 0.011 nM.
On to `CCCc1cc(N2CC[C@H](NC(C)=O)C2)nc(Nc2ccc(N)cc2)n1` [Example 270], for which the 50% effective concentration (EC50) amounted to 0.204 nM.
As for `CCCc1cc(N2CC[C@H](NC(C)=O)C2)nc(Nc2ccc(C)c(O)c2)n1` [Example 274], the 50% effective concentration (EC50) came out at 0.087 nM.
`CCCc1cc(N2CC[C@H](NC(C)=O)C2)nc(Nc2ccc(C)c(OC)c2)n1` [Example 279] had a 50% effective concentration (EC50) of 0.078 nM.
Compound `CCCc1cc(N2CC[C@H](NC(C)=O)C2)nc(Nc2ccc(C)c(C(F)(F)F)c2)n1` [Example 280] came in with an EC50 of 0.026 nM.
In the case of `CCCc1cc(N2CC[C@H](NC(C)=O)C2)nc(Nc2ccc(C)c(C)c2)n1` [Example 281], the EC50 is 0.196 nM.
As to `CCCc1cc(N2CC[C@H](NC(C)=O)C2)nc(Nc2ccc(C)c(F)c2)n1` [Example 282], the midpoint of the response, the EC50, lay at 0.103 nM.
The figure for `CCCc1cc(N2CC[C@H](NC(C)=O)C2)nc(Nc2ccc(N)c([N+](=O)[O-])c2)n1` [Example 286, (S)—N-{1-[2-(4-amino-3-nitrophenylamino)-6-propylpyrimidin-4-yl]pyrrolidin-3-yl}acetamide hydrochloride] is 0.0047 nM; for `CCCc1cc(N2CC[C@H](NC(C)=O)C2)nc(Nc2ccc(OC)c(N)c2)n1` [Example 289] it is 0.062 nM.
Consider `CCCc1cc(N2CC[C@H](NC(C)=O)C2)nc(Nc2ccc(Cl)c(N)c2)n1` [Example 290], for which the concentration giving a half-maximal response (EC50) turned out to be 0.013 nM.
Turning to `CCCc1cc(N2CC[C@H](NC(C)=O)C2)nc(Nc2ccc(F)c(N)c2)n1` [Example 291], the half-maximal effective concentration (EC50) was 0.0074 nM.
